The record followed here is ChEMBL document CHEMBL1201862, “PubChem BioAssay data set” (2004).

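Briefly, cells in 96-well plates were exposed to five compound concentrations for 48 h, and endpoints were estimated by linear interpolation. GI50: concentration for 50% inhibition of growth.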 The source made the active and inactive calls. Cut-off read from the data, not from the text of the source: active = GI50 up to about 1.1 µM and inactive = higher.

Test systems include 786-0; CAKI-1; HCT-116; HOP-62; K562; MDA-MB-435; MDA-N; NCI-H23; OVCAR-3; RPMI-8226; SF-268; SF-295; SK-MEL-28; SK-MEL-2; SNB-19; SNB-75; UACC-62; IGROV-1; NCI-H226; NCI-H522.
Holding throughout (test): NCI-60 cell line screen, 48 h

`Fc1cccc(C2SCC3=Nc4ccccc4CN32)c1` (stereo unspecified): the GI50 was 37.8 µM (inactive) with 786-0; > 100 µM (inactive) with CAKI-1; 27.8 µM (inactive) in the experiment with HCT-116; 38.9 µM (inactive) in the experiment on HOP-62; 88.9 µM (inactive) with K562; 33 µM (inactive) with MDA-MB-435. Also, the GI50 with MDA-N was 79.1 µM (inactive); with NCI-H23, 20.8 µM (inactive); in the experiment on OVCAR-3, 20.2 µM (inactive); with RPMI-8226, 36.8 µM (inactive); with SF-268, 67.1 µM (inactive); in the experiment with SF-295, 26.6 µM (inactive). The GI50 is 98.6 µM (inactive) in the experiment on SK-MEL-28; 13.4 µM (inactive) in the experiment on SK-MEL-2; 21.6 µM (inactive) in the experiment on SNB-19; > 100 µM (inactive) with SNB-75; 50.2 µM (inactive) with UACC-62.

With `O=C1c2ccccc2C(=O)c2c1ccc(C(=O)O)c2-c1ccc2ccccc2c1`, the GI50 in the experiment on 786-0 is 28.2 µM (inactive); in the experiment on CAKI-1, 29.3 µM (inactive); in the experiment with HCT-116, 20.7 µM (inactive); in the experiment with HOP-62, 32.2 µM (inactive); with IGROV-1, 13.7 µM (inactive); with K562, 25.9 µM (inactive). For the same compound, the GI50 with MDA-MB-435 is 23.8 µM (inactive); in the experiment on MDA-N, 26.5 µM (inactive); with NCI-H226, 21.8 µM (inactive); with NCI-H23, 18.6 µM (inactive); with NCI-H522, 23.7 µM (inactive); with OVCAR-3 it was 18.2 µM (inactive). Besides, the GI50 in the experiment with RPMI-8226 was 27.7 µM (inactive); in the experiment with SF-268, 28 µM (inactive); in the experiment with SF-295, 28.5 µM (inactive); with SK-MEL-28, 40.2 µM (inactive); in the experiment on SK-MEL-2 it was 19.1 µM (inactive); in the experiment on SNB-19 it was 34.7 µM (inactive). The GI50 with UACC-62 is 18.2 µM (inactive).

Turning to `CN(C)c1ccc(/C=C/c2cc(-c3ccccc3)[n+](C)n2-c2ccccc2)cc1`, the GI50 in the experiment on 786-0 is 0.43 µM (active); in the experiment with CAKI-1 it was 1.91 µM (inactive); in the experiment on HCT-116, 0.125 µM (active); in the experiment with HOP-62 it was 0.54 µM (active); in the experiment with IGROV-1, 0.154 µM (active); in the experiment on K562, 0.0531 µM (active). Also, the GI50 in the experiment on MDA-MB-435 was 0.158 µM (active); in the experiment with MDA-N, 0.114 µM (active); in the experiment with NCI-H226, 0.138 µM (active); in the experiment on NCI-H23, 0.0349 µM (active); with NCI-H522, < 0.01 µM (active); in the experiment on OVCAR-3 it was 0.234 µM (active). Further, the GI50 was 0.0221 µM (active) in the experiment on RPMI-8226; 0.431 µM (active) in the experiment with SF-268; 0.614 µM (active) with SF-295; 0.597 µM (active) with SK-MEL-28; 0.224 µM (active) in the experiment with SK-MEL-2; 0.0865 µM (active) in the experiment on SNB-19. For the same compound, the GI50 in the experiment with UACC-62 was 0.481 µM (active).

For `CON(C)C(=O)C(C)N(Cc1ccccc1)Cc1ccccc1` (stereo unspecified), the GI50 in the experiment on 786-0 is > 100 µM (inactive); in the experiment on HCT-116 it was 50.2 µM (inactive); in the experiment with HOP-62, 23.3 µM (inactive); in the experiment on IGROV-1, 88.5 µM (inactive); with K562, 40.5 µM (inactive); with MDA-MB-435 it was 88.9 µM (inactive). Further, the GI50 with MDA-N is > 100 µM (inactive); with NCI-H226, 64.6 µM (inactive); in the experiment with NCI-H23, 46.3 µM (inactive); in the experiment on OVCAR-3, 88.3 µM (inactive); in the experiment with RPMI-8226 it was 42.8 µM (inactive); in the experiment on SF-268 it was > 100 µM (inactive). Moreover, the GI50 in the experiment on SF-295 is > 100 µM (inactive); in the experiment on SK-MEL-28, > 100 µM (inactive); in the experiment with SNB-19, > 100 µM (inactive); in the experiment on SNB-75, 36.9 µM (inactive); with UACC-62, 66.2 µM (inactive).

As to `COc1cc(Oc2nc3ccc(C(F)(F)F)cc3nc2-c2ccccc2)cc(OC)c1OC`, the GI50 was 3.21 µM (inactive) with 786-0; 5.06 µM (inactive) in the experiment with CAKI-1; 10.8 µM (inactive) with HCT-116; 11 µM (inactive) with HOP-62; 58.2 µM (inactive) with IGROV-1; 40.5 µM (inactive) in the experiment on K562. The GI50 with MDA-MB-435 is 30.4 µM (inactive); in the experiment with MDA-N, 40.7 µM (inactive); with NCI-H226, 33.3 µM (inactive); with NCI-H23 it was 35.4 µM (inactive); with NCI-H522, 25.1 µM (inactive); in the experiment on OVCAR-3 it was 27.5 µM (inactive). Besides, the GI50 with RPMI-8226 is 36.8 µM (inactive); with SF-268, 22.8 µM (inactive); in the experiment on SF-295, 9.48 µM (inactive); in the experiment on SK-MEL-28, 33.9 µM (inactive); with SNB-75 it was 8.75 µM (inactive); in the experiment on UACC-62, 11 µM (inactive).

For the compound `NC1CC(=O)c2c(Br)csc21` (stereo unspecified), the GI50 was 82 µM (inactive) in the experiment on 786-0; 55 µM (inactive) in the experiment with CAKI-1; 46.8 µM (inactive) with HCT-116; 49.8 µM (inactive) in the experiment on HOP-62; 33 µM (inactive) in the experiment on IGROV-1; 50.1 µM (inactive) in the experiment on K562. Further, the GI50 with MDA-MB-435 is 21.2 µM (inactive); in the experiment on MDA-N, 12.5 µM (inactive); with OVCAR-3, 50.6 µM (inactive); in the experiment with RPMI-8226, 38.5 µM (inactive); in the experiment on SF-268 it was 39.3 µM (inactive); with SK-MEL-28, 25.9 µM (inactive). Also, the GI50 with SK-MEL-2 was 41 µM (inactive); in the experiment with SNB-19 it was 36.3 µM (inactive); in the experiment on SNB-75, 96.2 µM (inactive); with UACC-62, 21.3 µM (inactive).

Turning to `COc1ccc(NC(=S)N/N=C\c2ccc(NC(C)=O)cc2)cc1`, the GI50 with 786-0, in the experiment on CAKI-1, in the experiment on HCT-116, with HOP-62, in the experiment on IGROV-1 and with MDA-MB-435 was > 100 µM (inactive) each time. In addition, the GI50 with MDA-N, in the experiment on NCI-H23, with NCI-H522, in the experiment with OVCAR-3, with RPMI-8226 and with SF-295 was > 100 µM (inactive) in each case. Moreover, the GI50 in the experiment with SK-MEL-28, in the experiment with SK-MEL-2, in the experiment on SNB-19, in the experiment on SNB-75 and in the experiment with UACC-62 was > 100 µM (inactive) throughout.

Regarding `O=c1c(O)c(-c2cc(O)c(O)cc2O)oc2cc(O)c(C3OC(CO)C(O)C(O)C3O)c(O)c12` (stereo unspecified), the GI50 in the experiment on 786-0, in the experiment with HCT-116, in the experiment with HOP-62, in the experiment with IGROV-1, in the experiment on K562 and in the experiment on MDA-MB-435 was > 100 µM (inactive) each time. In addition, the GI50 in the experiment with MDA-N, in the experiment with NCI-H226, in the experiment on NCI-H522, with OVCAR-3, in the experiment with RPMI-8226 and in the experiment on SF-268 was > 100 µM (inactive) each time. For the same compound, the GI50 in the experiment on SF-295 is > 100 µM (inactive); in the experiment on SK-MEL-28, > 100 µM (inactive); in the experiment on SK-MEL-2, > 100 µM (inactive); with SNB-19, > 100 µM (inactive); in the experiment on SNB-75, 45.1 µM (inactive); with UACC-62, > 100 µM (inactive).
